Target: MC5R (Homo sapiens, UniProt P33032)
Experiment: herbal chip hybridization with MC5R and Cy3-anti-MC5R, fluorescence imaging
Type: binding
Settings: at least 25 ng/ml NDP-MSH spotted on coated slide; at least 25 μg/ml MC5R; at least 5 μg/ml Cy3-anti-MC5R; laser scanner
Method: A coated plastic slide (1) having active epoxy groups on its surface was prepared in accordance with the method disclosed in the Paragraph entitled “Pretreatment of the Plastic Slide and Preparation of the Coated Plastic Slide” under the Example section of U.S. Pat. No. 6,645,719 B2.
In a dark room, under room temperature, at least 25 μg/ml of MC3R, MC4R and MC5R were individually added to the slides (2), and the resultant slides (3) were allowed to stand for 1 hour for completing hybridization. The slides (3) were washed with 1× TBST buffer (50 mM Tris, pH 7.3, 0.15 M NaCl and 0.02% Tween 20) and Milli-Q water, and then dried in an incubator at 37° C.
Also in the dark room, under room temperature, at least 5 μg/ml of Cy3-anti-MC3R, Cy3-anti-MC4R and Cy3-anti-MC5R were respectively added to the slides (3), each containing said bound MC3R, MC4R or MC5R. The resultant slides (4) were allowed to stand for 1 hour for completing the specific MCXR-anti-MCXR binding, and were then washed with 1× TBST buffer (50 mM Tris, pH 7.3, 0.15 M NaCl and 0.02% Tween 20) and Milli-Q water, and dried in an incubator at 37° C.

Sequence of MC5R (P33032 whole entry, species assumed): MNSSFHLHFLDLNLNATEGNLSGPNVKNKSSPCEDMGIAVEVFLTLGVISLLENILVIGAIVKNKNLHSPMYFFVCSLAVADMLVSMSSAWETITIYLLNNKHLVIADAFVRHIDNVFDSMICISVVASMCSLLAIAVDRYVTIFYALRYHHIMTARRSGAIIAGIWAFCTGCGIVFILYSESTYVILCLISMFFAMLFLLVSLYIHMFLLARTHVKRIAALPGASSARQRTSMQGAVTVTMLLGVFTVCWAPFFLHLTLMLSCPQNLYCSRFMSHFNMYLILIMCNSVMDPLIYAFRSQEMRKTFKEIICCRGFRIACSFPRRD

With “NH2-Ser-Thr-Ser-Nle-Glu-His-D-Phe-Arg-Trp-Gly-Lys-Pro-Val-OH [NDP-MSH]” the “Mean of Fluorescence Intensity (M)” value was 722.50.

Reference: US20070009965A1, “Novel method for screening for GPCR agonists and/or antagonists from herbs” (Advanced Gene Technology, Corp., priority 2004, published 2007)
